Data reported in patent US7265125B2, “Neuropeptide Y antagonists” (Hoffmann-La Roche Inc., priority 2000, dated 2007).

Tests used:
[1] = target: T1, mouse NPY5-receptor (mNPY5) (Mus musculus, UniProt O70342); assay: Radioligand competition binding; conditions: HEK293 membranes expressing recombinant mNPY5; 100 pM [125I]labelled peptide YY; 1 h at 22° C.
T1 construct: The full-length cDNA encoding the mouse NPY5 (mNPY5) receptor was amplified from mouse brain cDNA; expressed in transfected cells; membrane preparation
T1 sequence (O70342 1-466): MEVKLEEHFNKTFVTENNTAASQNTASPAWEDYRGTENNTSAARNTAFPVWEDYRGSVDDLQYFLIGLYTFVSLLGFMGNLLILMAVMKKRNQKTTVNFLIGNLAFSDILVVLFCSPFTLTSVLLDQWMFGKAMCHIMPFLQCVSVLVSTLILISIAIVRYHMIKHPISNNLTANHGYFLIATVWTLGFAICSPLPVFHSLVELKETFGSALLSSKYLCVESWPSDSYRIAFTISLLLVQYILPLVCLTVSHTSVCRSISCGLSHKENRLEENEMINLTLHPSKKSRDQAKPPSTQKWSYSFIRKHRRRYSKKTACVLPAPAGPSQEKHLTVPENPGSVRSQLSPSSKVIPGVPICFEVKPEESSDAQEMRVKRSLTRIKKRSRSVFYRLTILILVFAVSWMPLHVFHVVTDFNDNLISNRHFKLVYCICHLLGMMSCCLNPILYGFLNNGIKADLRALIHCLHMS
Text: The full-length cDNA encoding the mouse NPY5 (mNPY5) receptor was amplified from mouse brain cDNA using specific primers, designed based on the published sequence, and Pfu DNA-Polymerase (Stratagene). The amplification product was subcloned into the mammalian expression vector pcDNA3 using Eco RI and XhoI restriction sites. Positive clones were sequenced and one clone, encoding the published sequence was selected for generation of stable cell clones.
Human embryonic kidney 293 (HEK293) cells were transfected with 10 μg mNPY5 DNA using the lipofectamine reagent (Gibco BRL) according to the manufacturer's instruction. Two days after transfection, geneticin selection (1 mg/ml) was initiated and several stable clones were isolated. One clone was further used for pharmacological characterization.
Human embryonic kidney 293 cells (HEK293), expressing recombinant mouse NPY5-receptor (mNPY5) were broken by three freeze/thawing cycles in hypotonic Tris buffer (5 mM, pH 7.4, 1 mM MgCl2), homogenized and centrifuged at 72,000×g for 15 min. The pellet was washed twice with 75 mM Tris buffer, pH 7.4, containing 25 mM MgCl2 and 250 mM sucrose, 0.1 mM phenylmethylsulfonylfluoride and 0.1 mM 1,10-pheneanthrolin, resuspended in the same buffer and stored in aliquots at −80° C. Protein was determined according to the method of Lowry using bovine serum albumine (BSA) as a standard. […]

IC50 [1]	melting point	Compound
60 nM	–	COc1ccc(-c2ccc3c(N4CCCC4)cc(C)nc3c2)cc1 [Example 1.6, 7-(4-methoxy-phenyl)-2-methyl-4-pyrrolidin-1-yl-quinoline]
–	122 to 123 °C	Cc1cc(N2CCCCC2)c2ccc(-c3cccs3)cc2n1 [Example 1.15, 2-methyl-4-piperidin-1-yl-7-thiophen-2-yl-quinoline]
–	111 to 112 °C	Cc1cc(N2CCCCC2)c2ccc(-c3ccccc3)cc2n1 [Example 1.16, 2-methyl-7-phenyl-4-piperidin-1-yl-quinoline]
100 nM	–	Cc1cc(N2CCCCC2)c2ccc(-c3ccc4[nH]ccc4c3)cc2n1 [Example 1.17, 7-(1H-Indol-5-yl)-2-methyl-4-piperidin-1-yl-quinoline]
